Data as given in US20200368247A1, “CENICRIVIROC FOR THE TREATMENT OF FIBROSIS” (Tobira Therapeutics, Inc., priority 2014, published 2020).

How the values were obtained:
HIV-1 [1] = assay: Study 201 PK/PD Emax model; assay type: in vivo, human
Text: Drug response was characterized using the following maximum effect (Emax) model:
where E is effect, E0 is the baseline effect (fixed to 0), Imax is the maximum inhibition, C denotes the PK variable (AUC0-24, Cmax, or steady-state concentration [Css]), IC50 is the value of the PK variable which corresponds to 50% of the maximum inhibition and y is the shape parameter which describes the degree of sigmoidicity.

HIV-1 [2] = assay: Study 201 drug resistance testing; assay type: in vivo, human; details: Baseline, Day 7, Day 40; subjects with evaluable samples
Description: In Study 201, drug resistance testing was performed at Baseline, Day 7, and Day 40 (or at the “Early Termination” visit, if applicable).

[3] = test system: male CD-1 mice with unilateral ureter occlusion; assay: Mouse UUO model of renal fibrosis; assay type: in vivo
Description: Test animals were allocated to weight-matched treatment groups on the day prior to the surgical procedure (Day −1). Male CD-1 mice (N=51; age, 7-8 weeks) underwent either sham surgery or total ligation of the right ureter, i.e. UUO, via aseptic laparotomy (FIG. 12). […] Another group received the anti-transforming growth factor TGF-β1 antibody, compound 1D11 (positive control) at 3 mg/kg/day from Days −1 to 4, injected intraperitoneally once daily, and vehicle control from Days 0 to 5. […] On Day 5, animals were anaesthetised, blood and tissues were collected prior to sacrifice.
Study endpoints included: a) body and kidney weights; b) fibrosis in obstructed kidney evaluated via histological quantitative image analysis of picrosirius red staining (ten images/depth/kidney obtained and assessed in a blinded fashion using light microscopy [at 200×] to enable sampling of 60-70% of the renal cortical area) and quantified by a composite Collagen Volume Fraction (CVF [% total area imaged]) score expressed as the average positive stain across three anatomically distinct ([…] apart) tissue sections, or depths, from the obstructed kidney; c) hydroxyproline content of frozen renal cortical tissue biopsies as assessed by biochemical analyses; d) mRNA expression of profibrotic and inflammatory biomarkers (including MCP-1, Collagen 1a1, Collagen 3a1, TGF-β1, Fibronectin-1, α-smooth muscle actin (α-SMA) and connective tissue growth factor-1 (CTGF-1); assessed via Luminex® (Life Technologies™, Carlsbad, Calif., USA) assay with relative expression normalised to HPRT (hypoxanthine phosphoribosyltransferase).
Data are expressed as mean±standard error of mean (SEM). Statistical analyses were performed using GraphPad Prism® (GraphPad Software, Inc., San Diego, Calif., USA). Treatment differences between sham-surgery+vehiclecontrol and UUO+vehicle-control groups, and between UUO+vehicle-control and UUO+compound-1D11 (positive control) groups, were analysed by unpaired t-Test. Treatment differences between UUO+vehicle-control and CVC-dose groups were analysed by one-way ANOVA (analysis of variance) with Dunnett's test (post-hoc).

[4] = Chronic (3- and 9-month) monkey toxicity studies; assay type: in vivo; details: 1000 mg/kg/day, 3- and 9-month monkey studies
CCR5 = CCR5 (Homo sapiens, UniProt P51681); assay: CCR5 receptor occupancy / RANTES-induced CCR5 internalization in PBMCs, flow cytometry; assay type: cell-based; details: PBMCs
CCR5, sequence (P51681 whole entry): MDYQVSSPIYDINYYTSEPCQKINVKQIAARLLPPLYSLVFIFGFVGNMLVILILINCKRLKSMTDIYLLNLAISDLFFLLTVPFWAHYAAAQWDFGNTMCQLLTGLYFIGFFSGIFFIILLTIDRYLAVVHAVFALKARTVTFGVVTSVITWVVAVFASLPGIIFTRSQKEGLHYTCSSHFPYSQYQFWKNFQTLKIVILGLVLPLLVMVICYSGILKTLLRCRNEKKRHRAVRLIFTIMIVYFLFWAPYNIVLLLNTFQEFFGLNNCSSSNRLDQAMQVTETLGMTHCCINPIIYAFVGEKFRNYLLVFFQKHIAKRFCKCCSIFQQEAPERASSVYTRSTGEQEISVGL
Description: The capacity of each drug to inhibit CCR5 or CCR2 internalization was evaluated. Cell-surface expression of CCR5 and CCR2 was assessed by flow cytometry, and fluorescence values were converted into molecules of equivalent soluble fluorescence (MESF).

[5] = Study 201 safety (adverse events, laboratory); assay type: in vivo
Description: Participants were required to be antiretroviral treatment-experienced, CCR5 antagonist-naive, with HIV-1 RNA levels of at least 5000 copies/mL and CD4+ cell counts of at least 250 cells/mm^3 was performed.
There were no deaths, SAEs, or other significant AEs, and there were no discontinuations because of an AE. Most treatment-emergent AEs were mild or moderate in severity. […] The most common (≥10%) treatment-emergent AEs in this study were nausea (18.5%), diarrhea (16.7%), headache (14.8%), and fatigue (11.0%).
There were 6 subjects with ALT and/or AST elevations in the 25 mg (2 subjects), 50 mg (2 subjects), 100 mg (1 subject), and 150 mg (1 subject) dose groups, and 1 subject with an AST elevation in the placebo group during the observation period. All elevations were Grade 1, were isolated except in 2 subjects (both in the 50-mg dose group) who had more than a single elevation, and resolved without sequelae. […] The AST elevations observed in subjects in the 100 mg and 150 mg dose groups during treatment (observed in 1 subject in each dose group), returned to normal values during continuation of treatment.

[6] = test system: RANTES-induced Ca2+ mobilization; assay: RANTES-induced Ca2+ mobilization; assay type: cell-based
[7] = test system: male Sprague-Dawley rats with TAA-induced fibrosis; assay: Rat model of thioacetamide-induced liver fibrosis and cirrhosis; assay type: in vivo; details: 8 weeks
Description: Fibrosis was induced in male Sprague-Dawley rats by intraperitoneal administration of TAA 150 mg/kg 3 times/week for 8 weeks. […] Biochemical, gene expression and histologic evaluations of the liver were conducted.

[8] = Phase 1 studies in healthy volunteer subjects; assay type: in vivo, human
Text: The frequency and magnitude of transaminase elevations observed across these studies was consistent with the pattern described for Phase 1 studies in scientific literature. […] In both studies and at all doses CVC presented a favorable adverse event profile. […] No clinically relevant changes in ECG parameters or changes for any vital sign parameters were observed during the 48-week treatment period. No apparent dose or exposure relationship for adverse events, laboratory abnormalities (including CPK, ALT, AST and bilirubin elevations) or dose-limiting toxicities were observed.

[9] = CVC 7 and 20 mg/kg/day, compound 1D11

Compound: CCCCOCCOc1ccc(-c2ccc3c(c2)/C=C(/C(=O)Nc2ccc([S@@+]([O-])Cc4cncn4CCC)cc2)CCCN3CC(C)C)cc1 [CVC, (S)-8-[4-(2-Butoxyethoxy)phenyl]-1-isobutyl-N-(4-{[(1-propyl-1H-imidazol-5-yl)methyl]sulfinyl}phenyl)-1,2,3,4-tetrahydro-1-benzazocine-5-carboxamide]
- percent of the maximum inhibitory effect at average Css (HIV-1 [1]; 25 mg): 54.9%
- percent of the maximum inhibitory effect at average Css (HIV-1 [1]; 50 mg): 79.8%
- percent of the maximum inhibitory effect at average Css (HIV-1 [1]; 75 mg): 85.9%
- percent of the maximum inhibitory effect at average Css (HIV-1 [1]; 150 mg): 95.9%
- Emax in the PK/PD model (HIV-1 RNA) (HIV-1 [1]; Emax model): −1.43 log10 copies/mL
- drug susceptibility of virus (HIV-1 [2]): fully susceptible
- effect on body weight ([3]; CVC 7 mg/kg/day, compound 1D11 3 mg/kg/day, Day 5): no effect on body weight
- tolerability in UUO mice ([3]; CVC 100 mg/kg/day): terminated early due to moribundity
- effect on obstructed kidney hydroxyproline content ([3]; CVC 7 and 20 mg/kg/day): Neither dose of CVC tested affected UUO-induced increases
- Collagen 1a1, Collagen 3a1, TGF-β1 and Fibronectin-1 mRNA expression vs UUO+vehicle-control [3, 9]: did not reach statistical significance
- MCP-1, α-SMA and CTGF-1 mRNA expression vs UUO+vehicle-control [3, 9]: did not have significant effects
- inflammation in clinical pathology parameters or tissue incl. liver [4]: No indication of inflammation
- prevention of RANTES-induced CCR5 internalization (CCR5): at lower effective concentrations than MVC
- subjects with ALT and/or AST elevations (Grade 1) ([5]; 25 mg): 2 subjects
- subjects with ALT and/or AST elevations (Grade 1) ([5]; 50 mg): 2 subjects
- subjects with ALT and/or AST elevations (Grade 1) ([5]; 100 mg): 1 subject
- subjects with ALT and/or AST elevations (Grade 1) ([5]; 150 mg): 1 subject
- tolerability ([5]; 25 to 150 mg once daily, 10 days): generally well tolerated at the doses studied
- RANTES-induced Ca2+ mobilization [6]: blocked
- reduction of fibrosis by collagen morphometry ([7]; Group 1a, 30 mg/kg/day concurrently with TAA): 49%
- reduction of fibrosis by collagen morphometry ([7]; Group 1b, 100 mg/kg/day concurrently with TAA): 38%
- generally well tolerated multiple daily doses ([8]; Phase 1, 10 days): up to 200 mg
- generally well tolerated single doses ([8]; Phase 1, healthy volunteers): up to 800 mg
